From ChEMBL document CHEMBL1137983, “AL-12182, a novel 11-oxa prostaglandin analog with topical ocular hypotensive activity in the monkey” (Bioorg Med Chem Lett, 2004)

Key:
[1] = target: Prostaglandin F2-alpha receptor (Bos taurus, UniProt P37289); assay: Binding affinity for Prostanoid FP receptor of bovine corpus luteum
[2] = target: Prostaglandin F2-alpha receptor (Mus musculus) (UniProt P43117); assay: Percent response for stimulation of prostanoid FP receptor-linked phosphoinositide turnover in Swiss 3T3 mouse fibroblast cells
Sequence of Prostaglandin F2-alpha receptor (Mus musculus) (P43117 whole entry, looked up): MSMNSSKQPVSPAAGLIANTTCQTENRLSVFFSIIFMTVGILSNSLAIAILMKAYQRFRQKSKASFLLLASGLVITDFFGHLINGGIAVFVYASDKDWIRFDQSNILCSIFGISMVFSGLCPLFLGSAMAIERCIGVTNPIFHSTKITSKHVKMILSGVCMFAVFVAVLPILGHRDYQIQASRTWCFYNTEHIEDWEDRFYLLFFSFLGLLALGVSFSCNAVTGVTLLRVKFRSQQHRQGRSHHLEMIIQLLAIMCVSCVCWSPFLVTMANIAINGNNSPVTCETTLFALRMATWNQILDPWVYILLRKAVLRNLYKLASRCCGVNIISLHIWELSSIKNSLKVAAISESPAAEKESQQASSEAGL

Felis catus = species: Felis catus; assay: Effective dose to cat pupil diameter constriction
Oryctolagus cuniculus = species: Oryctolagus cuniculus; assay: Effective dose estimated to elicit conjunctival hyperemia in rabbits over 4 h; assay type: functional, Conjunctiva
Monkey [3] = assay: Percentage change to elicit monkey intraocular pressure at 30 ug; assay type: functional, Cercopithecidae, Eye
Monkey [4] = assay: Percentage change to elicit monkey intraocular pressure at 0.3 ug; assay type: functional, Cercopithecidae, Eye
Monkey [5] = assay: Percentage change to elicit monkey intraocular pressure at 3 ug; assay type: functional, Cercopithecidae, Eye
Monkey [6] = assay: Percentage change to elicit monkey intraocular pressure at 1 ug; assay type: functional, Cercopithecidae, Eye

Sequence of Prostaglandin F2-alpha receptor (P37289 whole entry): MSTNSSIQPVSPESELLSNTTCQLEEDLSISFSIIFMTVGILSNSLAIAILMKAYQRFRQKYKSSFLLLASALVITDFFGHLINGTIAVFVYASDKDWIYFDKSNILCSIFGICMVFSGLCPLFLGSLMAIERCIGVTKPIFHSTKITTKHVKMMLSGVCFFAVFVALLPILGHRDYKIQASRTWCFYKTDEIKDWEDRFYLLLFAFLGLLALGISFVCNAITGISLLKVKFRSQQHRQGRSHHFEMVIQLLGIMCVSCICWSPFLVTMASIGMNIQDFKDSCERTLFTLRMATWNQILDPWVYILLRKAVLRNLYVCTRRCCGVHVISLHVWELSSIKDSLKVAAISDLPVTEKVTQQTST

| Ki [1] [nM] | Response [2] [%] | SMILES | other results |
| --- | --- | --- | --- |
| 890 | 84 | O=C(O)CCCC/C=C\C[C@H]1[C@@H](O)CO[C@@H]1/C=C/[C@@H](O)COc1cccc(Cl)c1 |  |
| 3100 | 74 | O=C(O)CCCC/C=C\C[C@H]1[C@@H](O)CO[C@@H]1/C=C/[C@@H](O)COc1cccc(C(F)(F)F)c1 |  |
| 640 | 67 | O=C(O)CCCC/C=C\C[C@H]1[C@@H](O)CO[C@@H]1/C=C/[C@@H](O)COc1ccccc1 |  |
| 330 | 83 | O=C(O)CC/C=C\CCC[C@H]1[C@@H](O)CO[C@@H]1/C=C/[C@@H](O)COc1ccccc1 |  |
| 2800 | 49 | O=C(O)CCCC/C=C\C[C@H]1[C@@H](O)CO[C@@H]1/C=C/[C@H](O)COc1ccccc1 |  |
| 6700 | 64 | CCCCC[C@H](O)/C=C/[C@H]1OC[C@H](O)[C@@H]1C/C=C\CCCC(=O)O |  |
| 5100 | 59 | O=C(O)CC/C=C\CCC[C@H]1[C@@H](O)CO[C@@H]1/C=C/[C@H](O)COc1ccccc1 |  |
| 7300 | 67 | O=C(O)CCCC/C=C\C[C@H]1[C@@H](O)CO[C@@H]1/C=C/[C@H](O)COc1cccc(Cl)c1 |  |
|  |  | CC(C)OC(=O)CCC/C=C\C[C@H]1[C@@H](O)CO[C@@H]1/C=C/[C@@H](O)COc1cccc(Cl)c1 | ED5 (Felis catus): 0.8 µg; ED5 (Oryctolagus cuniculus): 30 µg; Change (Monkey [3]): -15% |
| 52 | 100 | CC(C)OC(=O)CCC/C=C/C[C@@H]1[C@@H](/C=C/C(O)COc2cccc(C(F)(F)F)c2)[C@H](O)C[C@@H]1O (stereo partly specified) | ED5 (Felis catus): 0.01 µg; ED5 (Oryctolagus cuniculus): 3 µg; Change (Monkey [4]): -29% |
| 147 | 88 | O=C(O)CC/C=C\CCC[C@H]1[C@@H](O)CO[C@@H]1/C=C/[C@@H](O)COc1cccc(Cl)c1 |  |
| > 10000 | 43 | O=C(O)CCCC/C=C\C[C@H]1[C@@H](O)CO[C@@H]1/C=C/[C@H](O)COc1cccc(C(F)(F)F)c1 |  |
| 820 | 71 | O=C(O)CC/C=C\CCC[C@H]1[C@@H](O)CO[C@@H]1/C=C/[C@H](O)COc1cccc(Cl)c1 |  |
| 350 | 88 | O=C(O)CC/C=C\CCC[C@H]1[C@@H](O)CO[C@@H]1/C=C/[C@@H](O)COc1cccc(C(F)(F)F)c1 |  |
| 92 | 75 | CC(C)OC(=O)CCC/C=C/C[C@@H]1[C@@H](CC[C@@H](O)CCc2ccccc2)[C@H](O)C[C@@H]1O | ED5 (Felis catus): 0.13 µg; ED5 (Oryctolagus cuniculus): 1.8 µg; Change (Monkey [5]): -27% |
|  |  | CC(C)OC(=O)CCC/C=C\CC[C@H]1[C@@H](O)CO[C@@H]1/C=C/[C@@H](O)COc1cccc(Cl)c1 [AL-12182] | ED5 (Felis catus): 0.2 µg; ED5 (Oryctolagus cuniculus): 30 µg; Change (Monkey [5]): -40% |
| 9900 | 61 | O=C(O)CC/C=C\CCC[C@H]1[C@@H](O)CO[C@@H]1/C=C/[C@H](O)COc1cccc(C(F)(F)F)c1 |  |
| > 10000 |  | CCCCC[C@@H](O)/C=C/[C@H]1OC[C@H](O)[C@@H]1C/C=C\CCCC(=O)O |  |
|  |  | CCCCC[C@H](O)/C=C/C1[C@H](O)C[C@H](O)[C@@H]1C/C=C\CCCC(=O)OC(C)C (stereo partly specified) | ED5 (Felis catus): 0.03 µg; ED5 (Oryctolagus cuniculus): <0.1 µg; Change (Monkey [6]): -38% |
